Measurements as given in patent US20160168140A1, “HETEROCYCLIC COMPOUNDS AS ANTIBIOTIC POTENTIATORS” (priority 2014, published 2016).
Read-outs that look alike come from different tables or passages of the source.

Key:
Format in all cases: cell-based
[1] = tested on: Acinetobacter baumannii (Ab23); experiment: MIC shift assay of antibiotics (broth microdilution); settings: for Colistin MIC Shift: A. baumannii (MDR Ab), compd. concentration 4.0 μM, colistin MIC 0.5-1.0 μg/mL; for Colistin & Cmpd MIC shift / Colistin MIC with compound: compound at 10 μM; for colistin MIC shift, Ab23 at (compd concentration): fold shift of colistin MIC, nc = no changeover or no shift
Summary of the method: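 Broth microdilution MIC shift assay against Acinetobacter baumannii. Overnight cultures in cation-adjusted Mueller Hinton broth at 37° C. were sub-cultured 1:200, grown to OD600=0.5 to 0.8, diluted to OD600=0.01, and added (50 μL) to wells holding 50 μL of 2× antibiotic stocks for a starting OD600 of 0.005. After 18 to 20 h at 37° C. with shaking, OD600 was read to obtain MICs.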

[2] = tested on: E. coli; experiment: as above; settings: for Colistin MIC Shift: E. coli (SCR1), compd. concentration 4.0 μM, colistin MIC 0.5-1.0 μg/mL; for MIC, agent alone / Colistin & Cmpd MIC shift / Colistin MIC with compound: Escherichia coli ATCC 25922 (MMX 102), QC, Colistin-S; for Colistin & Cmpd MIC shift / Colistin MIC with compound: compound at 10 μM
Experimental: (§1) Minimum inhibitory concentration (MIC) shift assays were performed to determine if the test compounds could alter the MIC of existing antibacterial drugs (e.g., ciprofloxacin and colistin) for E. coli, Acinetobacter baumannii, Klebsiella pneumoniae, Pseudomonas aeruginosa, and Enterobacter cloacae. The MIC shift assay is based on the standard broth microdilution MIC determination protocol of Wiegand et al, Nat Protoc. 3(2):163-75 (2008), with slight modifications that allow for the screening of up to seven test compounds in a single plate.
(§2) On the day before an assay, bacteria were grown overnight in cation-adjusted Mueller Hinton broth (CAMHB; Teknova, Hollister, Calif.) at 37° C. in an orbital shaker and sub-cultured at a 1:200 dilution the following morning. The cells were grown to OD600=0.5 to 0.8 and then diluted to OD600=0.01. From a serial dilution of each antibiotic at (50 μL of 2× concentrated stock solutions) several concentrations were added to the wells of a sterile, transparent round-bottom 96-well plate (Phenix Research Products, Candler, N.C.), and diluted cells (50 μL) were added to the plates for a starting OD600 of 0.005. Then, a test compound (2.5 μL) was added to each well to give a final concentration of 4 or 10 μM. A row of wells lacking test compound but containing the antibiotic was used to determine the MIC of that antibiotic alone. A column of wells lacking both antibiotic and test compound served as a growth control, and an additional column containing only CAMHB was included as a sterile blank control.
(§3) The plates were incubated for 18 to 20 h at 37° C. in an orbital shaker, and the cell density (OD600) was determined the following day in a microplate reader (PolarStar Optima, BMG Labtech). The MIC shift was determined by comparing the MIC of the antibiotic alone to the MIC of the antibiotic plus test compound.

[3] = tested on: Klebsiella pneumoniae; experiment: as above; settings: for Colistin & Cmpd MIC shift / Colistin MIC with compound: compound at 10 μM
Experimental: as §1, §2, §3

[4] = tested on: Pseudomonas aeruginosa; experiment: as above; settings: for Colistin & Cmpd MIC shift / Colistin MIC with compound: compound at 10 μM
Experimental: as §1, §2, §3

[5] = tested on: Serratia marcescens; experiment: Colistin MIC / MIC shift with compound at 10 μM (isolate panel, Table 19); settings: Serratia marcescens 6147, Colistin-R; for Colistin & Cmpd MIC shift / Colistin MIC with compound: compound at 10 μM
[6] = tested on: Providencia stuartii; experiment: as above; settings: Providencia stuartii 6644, Colistin-R; for Colistin & Cmpd MIC shift / Colistin MIC with compound: compound at 10 μM
[7] = tested on: Proteus vulgaris; experiment: as above; settings: Proteus vulgaris 6240, Colistin-R; for Colistin & Cmpd MIC shift / Colistin MIC with compound: compound at 10 μM
[8] = tested on: Burkholderia cepacia; experiment: as above; settings: Burkholderia cepacia 547, Colistin-R; for Colistin & Cmpd MIC shift / Colistin MIC with compound: compound at 10 μM
[9] = tested on: Staphylococcus aureus; experiment: as above; settings: for Colistin & Cmpd MIC shift / Colistin MIC with compound: compound at 10 μM
[10] = Acinetobacter baumannii ATCC 19606 (MMX 1630), Colistin-S
[11] = Acinetobacter baumannii Ab23, Colistin-R
[12] = Klebsiella pneumoniae 2237, Colistin-R
[13] = Klebsiella pneumoniae ATCC 13883 (MMX 214), Colistin-S
[14] = Pseudomonas aeruginosa 1582, Colistin-I
[15] = Pseudomonas aeruginosa 6977, Colistin-R
[16] = Pseudomonas aeruginosa ATCC 27853 (MMX 103), QC, Colistin-S
[17] = Staphylococcus aureus ATCC 43300 (MMX 5999), MRSA

Cc1cccc2c(NCCCN(C)C)nc(-c3cc(-c4ccccc4)cc(C(F)(F)F)c3)nc12 [compound 343]
Colistin MIC Shift [1]: 8x
MIC, agent alone [1, 10]: 16 µg/mL
Colistin & Cmpd MIC shift [1, 10]: 17
Colistin MIC with compound [1, 10]: 0.015 µg/mL
MIC, agent alone [1, 11]: 8 µg/mL
Colistin & Cmpd MIC shift [1, 11]: 4267
Colistin MIC with compound [1, 11]: 0.015 µg/mL
colistin MIC shift, Ab23 at (compd concentration) ([1]; compound concentration 2 μM): 8-16x
Colistin MIC Shift [2]: 16x
MIC, agent alone [2]: > 32 µg/mL
Colistin & Cmpd MIC shift [2]: 8
Colistin MIC with compound [2]: 0.015 µg/mL
MIC, agent alone [3, 12]: > 32 µg/mL
Colistin & Cmpd MIC shift [3, 12]: 128
Colistin MIC with compound [3, 12]: 0.25 µg/mL
MIC, agent alone [3, 13]: > 32 µg/mL
Colistin & Cmpd MIC shift [3, 13]: 8
Colistin MIC with compound [3, 13]: 0.015 µg/mL
MIC, agent alone [4, 14]: > 32 µg/mL
Colistin & Cmpd MIC shift [4, 14]: 2
Colistin MIC with compound [4, 14]: 0.5 µg/mL
MIC, agent alone [4, 15]: > 32 µg/mL
Colistin & Cmpd MIC shift [4, 15]: 64
Colistin MIC with compound [4, 15]: 1 µg/mL
MIC, agent alone [4, 16]: > 32 µg/mL
Colistin & Cmpd MIC shift [4, 16]: 4
Colistin MIC with compound [4, 16]: 0.06 µg/mL
MIC, agent alone [5]: > 32 µg/mL
Colistin & Cmpd MIC shift [5]: 256
Colistin MIC with compound [5]: 0.25 µg/mL
MIC, agent alone [6]: > 32 µg/mL
Colistin & Cmpd MIC shift [6]: 4
Colistin MIC with compound [6]: > 16 µg/mL
MIC, agent alone [7]: > 32 µg/mL
Colistin & Cmpd MIC shift [7]: 4
Colistin MIC with compound [7]: > 16 µg/mL
MIC, agent alone [8]: > 32 µg/mL
Colistin & Cmpd MIC shift [8]: 4
Colistin MIC with compound [8]: > 16 µg/mL
MIC, agent alone [9]: 1 µg/mL
MIC, agent alone [9, 17]: 1 µg/mL
Colistin & Cmpd MIC shift [9, 17]: 4267
Colistin MIC with compound [9, 17]: ≤ 0.015 µg/mL
Colistin & Cmpd MIC shift [9]: 4267
Colistin MIC with compound [9]: ≤ 0.015 µg/mL

Clc1ccc2[nH]cc(-c3ccc(Cl)c(Cl)c3)c2c1 [compound 429]
Colistin MIC Shift [1]: 2x
MIC, agent alone [1, 10]: > 32 µg/mL
Colistin & Cmpd MIC shift [1, 10]: 8
Colistin MIC with compound [1, 10]: 0.03 µg/mL
MIC, agent alone [1, 11]: > 32 µg/mL
Colistin & Cmpd MIC shift [1, 11]: 2133
Colistin MIC with compound [1, 11]: 0.03 µg/mL
MIC Shift of Ciprofloxacin ([1]; Compd. No. 429 concentration 8 μM, antibiotic Ciprofloxacin, A. baumannii (Ab23)): ≧32x
MIC Shift of Levofloxacin ([1]; Compd. No. 429 concentration 8 μM, antibiotic Levofloxacin, A. baumannii (Ab23)): ≧64x
MIC Shift of Meropenem ([1]; Compd. No. 429 concentration 8 μM, antibiotic Meropenem, A. baumannii (Ab23)): ≧16x
MIC Shift of Tobramycin ([1]; Compd. No. 429 concentration 8 μM, antibiotic Tobramycin, A. baumannii (Ab23)): ≧16x
colistin MIC shift, Ab23 at (compd concentration) ([1]; compound concentration 1 μM): 4x (1 μM);
colistin MIC shift, Ab23 at (compd concentration) ([1]; compound concentration 2 μM): ≧16x (2μM)
Colistin MIC Shift [2]: 4x
MIC, agent alone [2]: > 32 µg/mL
Colistin & Cmpd MIC shift [2]: 8
Colistin MIC with compound [2]: 0.015 µg/mL
MIC, agent alone [3, 12]: > 32 µg/mL
Colistin & Cmpd MIC shift [3, 12]: 128
Colistin MIC with compound [3, 12]: 0.25 µg/mL
MIC, agent alone [3, 13]: > 32 µg/mL
Colistin & Cmpd MIC shift [3, 13]: 4
Colistin MIC with compound [3, 13]: 0.03 µg/mL
MIC, agent alone [4, 14]: > 32 µg/mL
Colistin & Cmpd MIC shift [4, 14]: 16
Colistin MIC with compound [4, 14]: 0.25 µg/mL
MIC, agent alone [4, 15]: > 32 µg/mL
Colistin & Cmpd MIC shift [4, 15]: 64
Colistin MIC with compound [4, 15]: 1 µg/mL
MIC, agent alone [4, 16]: > 32 µg/mL
Colistin & Cmpd MIC shift [4, 16]: 2
Colistin MIC with compound [4, 16]: 0.12 µg/mL
MIC, agent alone [5]: > 32 µg/mL
Colistin & Cmpd MIC shift [5]: 256
Colistin MIC with compound [5]: 0.25 µg/mL
MIC, agent alone [6]: > 32 µg/mL
Colistin & Cmpd MIC shift [6]: 4
Colistin MIC with compound [6]: 16 µg/mL
MIC, agent alone [7]: > 32 µg/mL
Colistin & Cmpd MIC shift [7]: 1067
Colistin MIC with compound [7]: 0.06 µg/mL
MIC, agent alone [8]: > 32 µg/mL
Colistin & Cmpd MIC shift [8]: 4
Colistin MIC with compound [8]: > 16 µg/mL
MIC, agent alone [9]: 2 µg/mL
MIC, agent alone [9, 17]: 2 µg/mL
Colistin & Cmpd MIC shift [9, 17]: 4267
Colistin MIC with compound [9, 17]: ≤ 0.015 µg/mL
Colistin & Cmpd MIC shift [9]: 4267
Colistin MIC with compound [9]: ≤ 0.015 µg/mL
